Key:
[1] = Promotion of nasal absorption of peptide proteinaceous drug; details: in vivo
[2] = system: Human Nasal Mucosal Homogenate; test: Inhibitory effect on degradation of peptide proteinaceous drug in human nasal mucosal homogenate; format: biochemical; set-up: concentration or dose not given beside the values; details: 37° C., HPLC
Method: A homogenate solution was prepared from human nasal mucosa to give 1 mg/ml of protein. […] The amounts of the peptide proteinaceous drug not yet cleaved after a predetermined time were measured by HPLC to find the amounts of decomposition. The inhibition rates were calculated by the following formula.
Inhibition rate (%)=(A-B)/A×100
A: Amount of peptide proteinaceous drug cleaved when enzyme inhibitor or absorption accelerant of present invention is not added to homogenate
B: Amount of peptide proteinaceous drug cleaved when enzyme inhibitor or absorption accelerant of present invention is added to homogenate

For NCCCCCC(=O)O [ε-ACA, ε-Amino caproic acid], the “effect of promoting nasal absorption” value [1] was “no effect of promoting nasal absorption was observed”, the “Inhibitor (%) ACTH” value ([2]; degradation of adrenocorticotropic hormone (ACTH)) was 0% and the “Inhibitor (%) CGRP” value ([2]; degradation of calcitonin gene related peptide (CGRP)) was 0%. The “Inhibitor (%) GLU” value ([2]; degradation of glucagon (GLU)) was 0%, the “Inhibitor (%) GHRH” value ([2]; degradation of growth hormone releasing hormone (GHRH)) was 0% and the “Inhibitor (%) INS” value ([2]; degradation of insulin (INS)) was 0%. The “Inhibitor (%) LHRH” value ([2]; degradation of luteinizing hormone releasing hormone (LHRH)) was 0%, the “Inhibitor (%) PTH” value ([2]; degradation of parathyroid hormone (PTH)) was 0% and the “Inhibitor (%) PDGF” value ([2]; degradation of platelet-derived growth factor (PDGF)) was 0%. For the same compound, the “Inhibitor (%) SCT” value ([2]; degradation of salmon calcitonin (SCT)) was 0%, the “Inhibitor (%) GIF” value ([2]; degradation of somatostatin (GIF)) was 0% and the “Inhibitor (%) S.p” value ([2]; degradation of substance P (S.p)) was 0%.
